According to publication PMC11323243, “Novel Inhibitors of SARS-CoV-2 RNA Identified through Virtual Screening” (Journal of Chemical Information and Modeling, 2024):
pEC50: −log10 of the molar value. Entries after “also recorded” stand apart in the source; their conditions may differ.

Each molecule was assayed on Omicron (BA.1) SARS-CoV-2 (assay: Antiviral activity, plaque reduction assay on Vero E6 cells). Conditions: not given.
Assay type: cell-based

| Structure (SMILES) | antiviral activity against SARS-CoV-2 (in words) |
| --- | --- |
| OCC1CN(Cc2cc3c(cc2Cl)OCO3)CC1CN1CCOCC1 (centres unmarked) [Compound 178] | decrease in potency |
| OCC1CN(Cc2cc3c(cc2Cl)OCO3)CC1CN1CCCCCC1 (centres unmarked) [Compound 269] | retained activity against the wild-type virus albeit with reduced potency |
| Cc1cc2c(cc1CN1CC(CO)C(CN3CCOCC3)C1)OCCO2 (centres unmarked) [Compound 325] | did not inhibit wild-type virus; also recorded: loss of antiviral activity against SARS-CoV-2 |

Same assay, conditions: Severe acute respiratory syndrome coronavirus 2, Vero C1008, 72 h; read-out: EC50, effective concentration inhibiting 50% of the virus

| Structure (SMILES) | pEC50 |
| --- | --- |
| OCC1CN(Cc2cc3c(cc2Cl)OCO3)CC1CN1CCOCC1 (centres unmarked) [Compound 178] | 3.99 |
| NCCc1ccc(CN2CCC(O)(c3cccc(C(F)(F)F)c3)CC2)cc1 [Compound 188] | 4.77 |
| Cc1cc2c(cc1CN1CC(CO)C(CN3CCCCCC3)C1)OCCO2 (centres unmarked) [Compound 194] | 4.54 |
| OC1CN(Cc2cccc3cc[nH]c23)CCN(c2ccncc2)C1 (centres unmarked) [Compound 229] | 4.57 |
| OCC1CN(Cc2cc3c(cc2Cl)OCO3)CC1CN1CCCCCC1 (centres unmarked) [Compound 269] | 4.27 |
| CN(C)CCN(C)CC1CN(Cc2ccc3c(c2)OCCO3)CC1CO (centres unmarked) [Compound 570] | 4.41 |
| Cc1cc2c(cc1CN1CC(CO)C(CN3CCN(C)CC3)C1)OCCO2 (centres unmarked) [Compound 782] | 5.39 |
| Cc1cc2c(cc1CN1CC(CO)C(CN3CCCC3)C1)OCO2 (centres unmarked) [Compound 789] | 4.36 |
| OC1CCCN(C2CCN(Cc3ncc[nH]3)CC2)C1 (centres unmarked) [Compound 21256088] | < 4.00 |
| Cc1nc(CN)cc(N2CCC(C(O)c3nccn3C)CC2)n1 (centres unmarked) [Compound 32807865] | < 4.00 |
| Clc1ccc2c(N3CCN(CCCN4CCN(c5ccnc6cc(Cl)ccc56)CC4)CC3)ccnc2c1 [piperaquine, reference compound] | 4.94 |
